Experimental data as given in patent US9597314B2, “Beta-lactamylalkanoic acids for treating premenstrual disorders” (AZEVAN PHARMACEUTICALS, INC., priority 2005, dated 2017).

Molecular target: V1a (Homo sapiens, UniProt P37288)
Assay: Human vasopression V1a receptor binding assay
Parameters: host or cells: CHO cells (hV1a cell line), whole adherent cells
Conditions: hV1a cell line (CHO); for IC50: 1 nM 3H-AVP, Table 17, read-out: V1a Binding Affinity (IC50 (nM)); for Ki: Table 18
Protocol: Human vasopression V1a receptor binding assay. A cell line expressing the human V1a receptor in CHO cells (henceforth referred to as the hV1a cell line) was obtained from Dr. Michael Brownstein, NIMH, Bethesda, Md., USA. The hV1a cDNA sequence is described by Thibonnier et al., Journal of Biological Chemistry, 269, 3304-3310 (1994), and the expression method was the same as described by Morel et al. (1992). The hV1a cell line was grown in alpha-MEM with 10% fetal bovine serum and 250 ug/ml G418 (Gibco, Grand Island, N.Y., USA). For competitive binding assay, hV1a cells were plated into 6-well culture plate at 1:10 dilution from a confluency flask, and maintained in culture for at least two days. Culture medium was then removed, cells were washed with 2 ml binding buffer (25 mM Hepes, 0.25% BSA, 1×DMEM, PH=7.0). To each well, 990 μl binding buffer containing 1 nM 3H-AVP was added, and followed by 10 μl series diluted Example compounds dissolved in DMSO. […] 100 nM cold AVP (Sigma) was used to assess non-specific binding. Cells were incubated for 45 minutes at 37° C., assay mixture was removed and each well was washed three times with PBS (pH=7.4). 1 ml 2% SDS was added per well and plates were let sit for 30 minutes. The whole content in a well was transferred to a scintillation vial. Each well was rinsed with 0.5 ml PBS which was then added to the corresponding vial. Scintillation fluid (Ecoscint, National Diagnostics, Atlanta, Ga.) was then added at 3 ml per vial. Samples were counted in a liquid scintillation counter (Beckman LS3801). IC50 values were calculated by Prism Curve fitting software.
All of the alkanedioic esters and amides exemplified in the foregoing examples dissolved in DMSO were tested in this assay. Binding curves were generated according to methods described by Thibonnier et al. (1994). [^3H]-AVP was added to the hV1a cell cultures followed by 10 fold dilutions of each test compound.

Chain of V1a (P37288 whole entry): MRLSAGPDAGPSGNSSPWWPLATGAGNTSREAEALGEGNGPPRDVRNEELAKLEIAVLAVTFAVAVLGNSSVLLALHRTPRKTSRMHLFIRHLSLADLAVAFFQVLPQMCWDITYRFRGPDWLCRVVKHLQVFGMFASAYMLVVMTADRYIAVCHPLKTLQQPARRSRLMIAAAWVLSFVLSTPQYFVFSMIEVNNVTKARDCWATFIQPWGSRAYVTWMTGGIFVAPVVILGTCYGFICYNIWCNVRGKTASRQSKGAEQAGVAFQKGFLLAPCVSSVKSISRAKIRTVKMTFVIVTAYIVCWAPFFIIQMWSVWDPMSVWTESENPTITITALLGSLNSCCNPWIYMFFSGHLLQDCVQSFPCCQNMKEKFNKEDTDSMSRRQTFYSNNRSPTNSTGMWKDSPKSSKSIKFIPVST

Row | SMILES | IC50 | Ki
1 | O=C(NCc1ccc(F)c(C(F)(F)F)c1)[C@H](CCC(=O)N1CCN(C2CCCCC2)CC1)N1C(=O)[C@@H](N2C(=O)OC[C@@H]2c2ccccc2)[C@H]1/C=C/c1ccccc1 [Example 178] | < 50 nM | 
2 | O=C(NCc1ccc(Cl)c(C(F)(F)F)c1)[C@H](CCC(=O)N1CCN(C2CCCCC2)CC1)N1C(=O)[C@@H](N2C(=O)OC[C@@H]2c2ccccc2)[C@H]1/C=C/c1ccccc1 [Example 181] | < 50 nM | 
3 | COc1cccc(CNC(=O)[C@H](CCC(=O)N2CCN(C3CCCCC3)CC2)N2C(=O)[C@@H](N3C(=O)OC[C@@H]3c3ccccc3)[C@H]2/C=C/c2ccccc2)c1 [Example 183] | < 10 nM | 
4 | O=C(NCc1cccc(F)c1)[C@H](CCC(=O)N1CCN(C2CCCCC2)CC1)N1C(=O)[C@@H](N2C(=O)OC[C@@H]2c2ccccc2)[C@H]1/C=C/c1ccccc1 [Example 184] | < 10 nM | 
5 | O=C(NCc1ccc(F)c(Cl)c1)[C@H](CCC(=O)N1CCN(C2CCCCC2)CC1)N1C(=O)[C@@H](N2C(=O)OC[C@@H]2c2ccccc2)[C@H]1/C=C/c1ccccc1 [Example 186] | < 10 nM | 
6 | O=C(NCc1cc(C(F)(F)F)cc(C(F)(F)F)c1)[C@H](CCC(=O)N1CCN(C2CCCCC2)CC1)N1C(=O)[C@@H](N2C(=O)OC[C@@H]2c2ccccc2)[C@H]1/C=C/c1ccccc1 [Example 188] | 7.26 nM | 
7 | Cc1ccccc1CNC(=O)[C@H](CCC(=O)N1CCN(C2CCCCC2)CC1)N1C(=O)[C@@H](N2C(=O)OC[C@@H]2c2ccccc2)[C@H]1/C=C/c1ccccc1 [Example 192] | < 10 nM | 
8 | Cc1ccc(CNC(=O)[C@H](CCC(=O)N2CCN(C3CCCCC3)CC2)N2C(=O)[C@@H](N3C(=O)OC[C@@H]3c3ccccc3)[C@H]2/C=C/c2ccccc2)cc1 [Example 194] | < 100 nM | 
9 | CC(NC(=O)[C@H](CCC(=O)N1CCN(C2CCCCC2)CC1)N1C(=O)[C@@H](N2C(=O)OC[C@@H]2c2ccccc2)[C@H]1/C=C/c1ccccc1)c1ccccc1 (some centres unmarked) [Example 195] | < 50 nM | 
10 | CN(Cc1ccccc1)C(=O)[C@H](CCC(=O)N1CCN(C2CCCCC2)CC1)N1C(=O)[C@@H](N2C(=O)OC[C@@H]2c2ccccc2)[C@H]1/C=C/c1ccccc1 [Example 196] | < 100 nM | 
11 | Cc1cc(C)cc(CNC(=O)[C@H](CCC(=O)N2CCN(C3CCCCC3)CC2)N2C(=O)[C@@H](N3C(=O)OC[C@@H]3c3ccccc3)[C@H]2/C=C/c2ccccc2)c1 [Example 199] | < 10 nM | 
12 | COc1cc(CNC(=O)[C@H](CCC(=O)N2CCN(C3CCCCC3)CC2)N2C(=O)[C@@H](N3C(=O)OC[C@@H]3c3ccccc3)[C@H]2/C=C/c2ccccc2)cc(OC)c1 [Example 201] | 10.5 nM | 6.43 nM
13 | O=C(NCc1ccccn1)[C@H](CCC(=O)N1CCN(C2CCCCC2)CC1)N1C(=O)[C@@H](N2C(=O)OC[C@@H]2c2ccccc2)[C@H]1/C=C/c1ccccc1 [Example 208] | 16.3 nM | 10 nM
14 | O=C(NCc1cccnc1)[C@H](CCC(=O)N1CCN(C2CCCCC2)CC1)N1C(=O)[C@@H](N2C(=O)OC[C@@H]2c2ccccc2)[C@H]1/C=C/c1ccccc1 [Example 209] | 16 nM | 9.8 nM
15 | O=C(NCc1ccncc1)[C@H](CCC(=O)N1CCN(C2CCCCC2)CC1)N1C(=O)[C@@H](N2C(=O)OC[C@@H]2c2ccccc2)[C@H]1/C=C/c1ccccc1 [Example 210] | 29.5 nM | 18.1 nM
16 | COc1cc(OC)cc(C(C)(C)NC(=O)[C@H](CCC(=O)N2CCN(C3CCCCC3)CC2)N2C(=O)[C@@H](N3C(=O)OC[C@@H]3c3ccccc3)[C@H]2/C=C/c2ccccc2)c1 [Example 218] | 7.7 nM | 4.7 nM

More lines, now with the values ahead:

Row | IC50 | Ki | SMILES
17 | 0.67 nM |  | O=C(NCc1cc(C(F)(F)F)ccc1F)[C@H](CCC(=O)N1CCN(C2CCCCC2)CC1)N1C(=O)[C@@H](N2C(=O)OC[C@@H]2c2ccccc2)[C@H]1/C=C/c1ccccc1 [Example 177]
18 | 0.81 nM |  | O=C(NCc1cc(F)cc(C(F)(F)F)c1)[C@H](CCC(=O)N1CCN(C2CCCCC2)CC1)N1C(=O)[C@@H](N2C(=O)OC[C@@H]2c2ccccc2)[C@H]1/C=C/c1ccccc1 [Example 179]
19 | 0.33 nM |  | O=C(NCc1cccc(C(F)(F)F)c1F)[C@H](CCC(=O)N1CCN(C2CCCCC2)CC1)N1C(=O)[C@@H](N2C(=O)OC[C@@H]2c2ccccc2)[C@H]1/C=C/c1ccccc1 [Example 180]
20 | 1.52 nM |  | O=C(NCc1ccccc1C(F)(F)F)[C@H](CCC(=O)N1CCN(C2CCCCC2)CC1)N1C(=O)[C@@H](N2C(=O)OC[C@@H]2c2ccccc2)[C@H]1/C=C/c1ccccc1 [Example 182]
21 | 1.27 nM |  | O=C(NCc1cc(F)cc(F)c1)[C@H](CCC(=O)N1CCN(C2CCCCC2)CC1)N1C(=O)[C@@H](N2C(=O)OC[C@@H]2c2ccccc2)[C@H]1/C=C/c1ccccc1 [Example 185]
22 | 1 nM |  | O=C(NCc1cccc(Cl)c1)[C@H](CCC(=O)N1CCN(C2CCCCC2)CC1)N1C(=O)[C@@H](N2C(=O)OC[C@@H]2c2ccccc2)[C@H]1/C=C/c1ccccc1 [Example 187]
23 | 1.7 nM | 1.04 nM | O=C(NCc1cccc([N+](=O)[O-])c1)[C@H](CCC(=O)N1CCN(C2CCCCC2)CC1)N1C(=O)[C@@H](N2C(=O)OC[C@@H]2c2ccccc2)[C@H]1/C=C/c1ccccc1 [Example 189]
24 | 0.88 nM | 0.54 nM | O=C(NCc1cccc(Br)c1)[C@H](CCC(=O)N1CCN(C2CCCCC2)CC1)N1C(=O)[C@@H](N2C(=O)OC[C@@H]2c2ccccc2)[C@H]1/C=C/c1ccccc1 [Example 190]
25 | 2.92 nM | 1.79 nM | O=C(NCc1ccccc1)[C@H](CCC(=O)N1CCN(C2CCCCC2)CC1)N1C(=O)[C@@H](N2C(=O)OC[C@@H]2c2ccccc2)[C@H]1/C=C/c1ccccc1 [Example 191]
26 | 1.17 nM | 0.72 nM | Cc1cccc(CNC(=O)[C@H](CCC(=O)N2CCN(C3CCCCC3)CC2)N2C(=O)[C@@H](N3C(=O)OC[C@@H]3c3ccccc3)[C@H]2/C=C/c2ccccc2)c1 [Example 193]
27 | 5.08 nM | 3.11 nM | O=C(NCCc1ccccc1)[C@H](CCC(=O)N1CCN(C2CCCCC2)CC1)N1C(=O)[C@@H](N2C(=O)OC[C@@H]2c2ccccc2)[C@H]1/C=C/c1ccccc1 [Example 200]
28 | 2.46 nM | 1.5 nM | COc1cccc([C@H](C)NC(=O)[C@H](CCC(=O)N2CCN(C3CCCCC3)CC2)N2C(=O)[C@@H](N3C(=O)OC[C@@H]3c3ccccc3)[C@H]2/C=C/c2ccccc2)c1 [Example 203]
29 | 6 nM | 3.7 nM | CC(C)(NC(=O)[C@H](CCC(=O)N1CCN(C2CCCCC2)CC1)N1C(=O)[C@@H](N2C(=O)OC[C@@H]2c2ccccc2)[C@H]1/C=C/c1ccccc1)c1ccccc1 [Example 204]
30 | 0.34 nM | 0.21 nM | CN(Cc1cccc(C(F)(F)F)c1)C(=O)[C@H](CCC(=O)N1CCN(C2CCCCC2)CC1)N1C(=O)[C@@H](N2C(=O)OC[C@@H]2c2ccccc2)[C@H]1/C=C/c1ccccc1 [Example 205]
31 | 1.58 nM | 0.97 nM | C[C@H](NC(=O)[C@H](CCC(=O)N1CCN(C2CCCCC2)CC1)N1C(=O)[C@@H](N2C(=O)OC[C@@H]2c2ccccc2)[C@H]1/C=C/c1ccccc1)c1ccccc1 [Example 206]
32 | 4.48 nM | 2.74 nM | O=C(NC1(c2ccccc2)CC1)[C@H](CCC(=O)N1CCN(C2CCCCC2)CC1)N1C(=O)[C@@H](N2C(=O)OC[C@@H]2c2ccccc2)[C@H]1/C=C/c1ccccc1 [Example 207]
33 | 5.37 nM | 3.29 nM | O=C(NCc1ccco1)[C@H](CCC(=O)N1CCN(C2CCCCC2)CC1)N1C(=O)[C@@H](N2C(=O)OC[C@@H]2c2ccccc2)[C@H]1/C=C/c1ccccc1 [Example 211]
34 | 0.95 nM | 0.58 nM | Cc1ccc(CNC(=O)[C@H](CCC(=O)N2CCN(C3CCCCC3)CC2)N2C(=O)[C@@H](N3C(=O)OC[C@@H]3c3ccccc3)[C@H]2/C=C/c2ccccc2)o1 [Example 212]
35 | 0.78 nM | 0.48 nM | O=C(NCc1cccs1)[C@H](CCC(=O)N1CCN(C2CCCCC2)CC1)N1C(=O)[C@@H](N2C(=O)OC[C@@H]2c2ccccc2)[C@H]1/C=C/c1ccccc1 [Example 213]
36 | 1.83 nM | 1.12 nM | O=C(NC1CCc2ccccc21)[C@H](CCC(=O)N1CCN(C2CCCCC2)CC1)N1C(=O)[C@@H](N2C(=O)OC[C@@H]2c2ccccc2)[C@H]1/C=C/c1ccccc1 (some centres unmarked) [Example 216]
37 | 3.17 nM | 1.94 nM | O=C(NC1(c2ccccc2)CCCC1)[C@H](CCC(=O)N1CCN(C2CCCCC2)CC1)N1C(=O)[C@@H](N2C(=O)OC[C@@H]2c2ccccc2)[C@H]1/C=C/c1ccccc1 [Example 217]
38 | 0.63 nM | 0.39 nM | COc1ccc(OC)c(CNC(=O)[C@H](CCC(=O)N2CCN(C3CCCCC3)CC2)N2C(=O)[C@@H](N3C(=O)OC[C@@H]3c3ccccc3)[C@H]2/C=C/c2ccccc2)c1 [Example 219]
